From ChEMBL document CHEMBL1131721, “Adenosine-5'-carboxylic acid peptidyl derivatives as inhibitors of protein kinases” (Bioorg Med Chem Lett, 1999)
Residues, ends and D or L forms follow the SMILES beside them. *: point of attachment. X1 = Nc1ncnc2c1ncn2C1O[C@H](C(=O)*)[C@@H](O)[C@H]1O; Ahx = NCCCCCC(=O)O

Key:
CaM kinase I alpha = molecular target: T1, CaM kinase I alpha (Zea mays, UniProt O04417); assay: Inhibition of Calcium-dependent protein kinase 1 (CDPK-1) from maize seedlings
T1 sequence (O04417 whole entry): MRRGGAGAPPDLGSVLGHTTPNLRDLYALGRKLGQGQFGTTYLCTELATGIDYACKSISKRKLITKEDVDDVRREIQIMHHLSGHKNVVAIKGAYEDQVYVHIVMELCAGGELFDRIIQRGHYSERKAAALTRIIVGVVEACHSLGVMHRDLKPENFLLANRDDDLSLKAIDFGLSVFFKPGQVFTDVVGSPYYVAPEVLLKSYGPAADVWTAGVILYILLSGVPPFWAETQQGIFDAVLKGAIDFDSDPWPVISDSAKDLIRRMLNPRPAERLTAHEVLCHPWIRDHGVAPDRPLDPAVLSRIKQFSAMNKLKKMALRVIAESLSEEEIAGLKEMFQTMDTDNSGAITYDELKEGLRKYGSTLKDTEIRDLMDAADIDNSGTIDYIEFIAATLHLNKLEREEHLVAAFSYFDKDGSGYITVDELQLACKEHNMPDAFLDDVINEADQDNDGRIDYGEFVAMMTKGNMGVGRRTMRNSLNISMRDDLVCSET

[1] = Inhibition of Casein kinase 1 from rat liver
[2] = Inhibition of murine Protein kinase A; design: species or system Mus musculus
[3] = Inhibition of Casein kinase 2 from rat liver
[4] = Inhibition of Casein kinase 2 from rat liver at 100 uM (No inhibition)
[5] = Inhibition of murine Protein kinase A at 100 uM (No inhibition); design: species or system Mus musculus

Compound | IC50 (CaM kinase I alpha) [µM] | IC50 [1] [µM] | IC50 [2] [µM] | IC50 ([3]; read-out: IC50) [µM] | IC50 [4] | IC50 [5] | IC50 [3]
N=C(N)NCCC[C@H](NC(=O)[C@H](CCCNC(=N)N)NC(=O)[C@H](CCCNC(=N)N)NC(=O)[C@H](CCCNC(=N)N)NC(=O)[C@H](CCCNC(=N)N)NC(=O)[C@H](CCCNC(=N)N)NC(=O)CNC(=O)[C@H]1OC(n2cnc3c(N)ncnc32)[C@H](O)[C@@H]1O)C(=O)O (stereo partly specified) | 67 | > 30 | 4 | > 30 |  |  | 
N=C(N)NCCC[C@H](NC(=O)[C@H](CCCNC(=N)N)NC(=O)[C@H](CCCNC(=N)N)NC(=O)[C@H](CCCNC(=N)N)NC(=O)[C@H](CCCNC(=N)N)NC(=O)[C@H](CCCNC(=N)N)NC(=O)CCCCCNC(=O)[C@H]1OC(n2cnc3c(N)ncnc32)[C@H](O)[C@@H]1O)C(=O)O (stereo partly specified) | 1.2 | > 30 | 0.12 | > 30 |  |  | 
CC(=O)NCCCCCC(=O)N[C@@H](CCCN=C(N)N)C(=O)N[C@@H](CCCNC(=N)N)C(=O)N[C@@H](CCCNC(=N)N)C(=O)N[C@@H](CCCNC(=N)N)C(=O)N[C@@H](CCCNC(=N)N)C(=O)N[C@@H](CCCN=C(N)N)C(=O)O (stereo in doubt) | > 50 | > 100 | > 100 |  | Not Active |  | 
N=C(N)NCCC[C@H](NC(=O)[C@H](CCCNC(=N)N)NC(=O)[C@H](CCCNC(=N)N)NC(=O)[C@H](CCCNC(=N)N)NC(=O)[C@H](CCCNC(=N)N)NC(=O)[C@H](CCCNC(=N)N)NC(=O)CCCNC(=O)[C@H]1OC(n2cnc3c(N)ncnc32)[C@H](O)[C@@H]1O)C(=O)O (stereo partly specified) | 19 | > 30 | 1.3 | > 30 |  |  | 
N=C(N)NCCC[C@H](NC(=O)[C@H](CCCNC(=N)N)NC(=O)[C@H](CCCNC(=N)N)NC(=O)[C@H](CCCNC(=N)N)NC(=O)[C@H](CCCNC(=N)N)NC(=O)[C@H](CCCNC(=N)N)NC(=O)CCCCCCCCCCNC(=O)[C@H]1OC(n2cnc3c(N)ncnc32)[C@H](O)[C@@H]1O)C(=O)O (stereo partly specified) | 4.9 | > 30 | 0.33 |  | Not Active |  | 
NC(N)=NCCC[C@@H](N)C(=O)N[C@H](CCCN=C(N)N)C(=O)N[C@H](CCCN=C(N)N)C(=O)N[C@H](CCCN=C(N)N)C(=O)N[C@H](CCCN=C(N)N)C(=O)N[C@H](CCCN=C(N)N)C(=O)O | > 50 | > 100 |  |  | Not Active | Not Active | 
C[C@H](NC(=O)C[C@H](NC(=O)C[C@H](NC(=O)[C@H]1O[C@@H](n2cnc3c(N)ncnc32)[C@H](O)[C@@H]1O)C(=O)O)C(=O)O)C(=O)N[C@@H](CCCNC(=N)N)C(=O)N[C@@H](CCCNC(=N)N)C(=O)N[C@@H](CCCNC(=N)N)C(=O)N[C@@H](CCCNC(=N)N)C(=O)N[C@@H](CCCNC(=N)N)C(=O)N[C@@H](CCCNC(=N)N)C(=O)O | > 50 | > 30 | 11.1 | > 30 |  |  | 
Nc1ncnc2c1ncn2[C@@H]1O[C@H](CO)[C@@H](O)[C@H]1O [ADENOSINE] | 116 | 126 | 141 | > 300 |  |  | 
N=C(N)NCCC[C@H](NC(=O)[C@H](CCCNC(=N)N)NC(=O)[C@H](CCCNC(=N)N)NC(=O)[C@H](CCCNC(=N)N)NC(=O)CCCCCNC(=O)[C@H]1OC(n2cnc3c(N)ncnc32)[C@H](O)[C@@H]1O)C(=O)O (stereo partly specified) ({X1-Ahx}-RRRR-OH) | 52 |  |  |  |  |  | 
N=C(N)NCCC[C@@H](NC(=O)[C@@H](CCCNC(=N)N)NC(=O)CCCCCNC(=O)[C@H]1OC(n2cnc3c(N)ncnc32)[C@H](O)[C@@H]1O)C(=O)O (stereo partly specified) | 35 |  |  |  |  |  | 
N=C(N)NCCC[C@H](NC(=O)[C@H](CCCNC(=N)N)NC(=O)[C@H](CCCNC(=N)N)NC(=O)[C@H](CCCNC(=N)N)NC(=O)[C@H](CCCNC(=N)N)NC(=O)[C@H](CCCNC(=N)N)NC(=O)CCNC(=O)[C@H]1OC(n2cnc3c(N)ncnc32)[C@H](O)[C@@H]1O)C(=O)O (stereo partly specified) | 38 | > 30 | 1.8 |  |  |  | Not Active
N=C(N)NCCC[C@H](NC(=O)[C@H](CCCNC(=N)N)NC(=O)[C@H](CCCNC(=N)N)NC(=O)[C@H](CCCNC(=N)N)NC(=O)[C@H](CCCNC(=N)N)NC(=O)[C@H](CCCNC(=N)N)NC(=O)CCCCCCCNC(=O)[C@H]1OC(n2cnc3c(N)ncnc32)[C@H](O)[C@@H]1O)C(=O)O (stereo partly specified) | 3.2 | > 30 | 0.24 | > 30 |  |  | 
C[C@H](NC(=O)CCNC(=O)CCNC(=O)[C@H]1OC(n2cnc3c(N)ncnc32)[C@H](O)[C@@H]1O)C(=O)N[C@@H](CCCNC(=N)N)C(=O)N[C@@H](CCCNC(=N)N)C(=O)N[C@@H](CCCNC(=N)N)C(=O)N[C@@H](CCCNC(=N)N)C(=O)N[C@@H](CCCNC(=N)N)C(=O)N[C@@H](CCCNC(=N)N)C(=O)O (stereo partly specified) | 16 | > 100 | 4.3 |  |  |  | ≥ 30 µM
